Experiments:
[1] = target: T1, BCL-2 (Homo sapiens, UniProt P10415); experiment: HTRF BCL-2/BAK assay (Cisbio); assay type: binding; details: recombinant human Tag1-BCL-2 2 nM, Tag2-BAK 10 nM
T1 construct: purchased Cisbio 63ADK000CB01PEG
Experimental: (§1) Then the pre-mixed anti-Tag1-Eu^3+ and anti-tag2-XL665 were added to the plate and further incubated at room temperature for another 2 hours. The signals ([…]) were read on Envision 2104 instrument. The IC50 for each compound was derived from fitting the signal of 665/615 nM to the increasing compound concentration.
(§2) Using the above assays, the following compounds were tested.

[2] = target: T2, BCL-XL (Homo sapiens, UniProt Q07817); experiment: HTRF BCL-XL/BAK assay (Cisbio); assay type: binding; details: recombinant human Tag1-BCL-XL 2 nM, Tag2-BAK 5 nM
T2 construct: purchased Cisbio 63ADK000CB04PEG
Experimental: as §1, §2

[3] = tested on: DOHH2 cells; experiment: CellTiter-Glo cell proliferation assay, DOHH2 cells; assay type: cell-based; details: Homo sapiens, DOHH-2, 72 hours
In short: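 GI50 derived from CellTiter-Glo luminescent viability signal. Cells grown in DMEM with 10% FBS received a compound dilution series for 72 h (37 °C, 5% CO2).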

T2 sequence (Q07817 whole entry): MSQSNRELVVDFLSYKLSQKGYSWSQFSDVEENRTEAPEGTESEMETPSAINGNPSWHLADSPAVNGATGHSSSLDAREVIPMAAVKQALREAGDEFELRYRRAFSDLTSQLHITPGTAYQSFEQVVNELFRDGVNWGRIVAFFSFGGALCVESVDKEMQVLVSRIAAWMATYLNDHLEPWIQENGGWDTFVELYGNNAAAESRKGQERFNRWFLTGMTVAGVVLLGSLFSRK
T1 sequence (P10415 whole entry): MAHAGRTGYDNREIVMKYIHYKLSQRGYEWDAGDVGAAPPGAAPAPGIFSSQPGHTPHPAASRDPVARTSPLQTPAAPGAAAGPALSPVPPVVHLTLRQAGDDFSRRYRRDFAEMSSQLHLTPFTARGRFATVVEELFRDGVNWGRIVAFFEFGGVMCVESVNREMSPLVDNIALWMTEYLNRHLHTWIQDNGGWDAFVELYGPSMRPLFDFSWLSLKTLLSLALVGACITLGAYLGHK

IC50 [1]	IC50 [2]	SMILES	GI50 [3]
< 20 nM	< 20 nM	O=C(NS(=O)(=O)c1ccc(NCC2CC3(CCN(CCO)CC3)C2)c([N+](=O)[O-])c1)c1ccc(N2CCN([C@@H]3CCCCc4c(Cl)cccc43)CC2)cc1Oc1cnc2[nH]ccc2c1 [Compound 121, (R)-2-((1H-pyrrolo[2,3-b]pyridin-5-yl)oxy)-4-(4-(1-chloro-6,7,8,9-tetrahydro-5H-benzo[7]annulen-5-yl)piperazin-1-yl)-N-((4-(((7-(2-hydroxyethyl)-7-azaspiro[3.5]nonan-2-yl)methyl)amino)-3-nitrophenyl)sulfonyl)benzamide]	< 50 nM
20 to 200 nM	20 to 200 nM	NCCN1CCC2(CC1)CC(CNc1ccc(S(=O)(=O)NC(=O)c3ccc(N4CCN([C@@H]5CCCCc6c(Cl)cccc65)CC4)cc3)cc1[N+](=O)[O-])C2 [Compound 120, (R)-N-((4-(((7-(2-aminoethyl)-7-azaspiro[3.5]nonan-2-yl)methyl)amino)-3-nitrophenyl)sulfonyl)-4-(4-(1-chloro-6,7,8,9-tetrahydro-5H-benzo[7]annulen-5-yl)piperazin-1-yl)benzamide]	500 to 5000 nM
20 to 200 nM	> 2000 nM	CS(=O)(=O)Nc1cccc2c1CCCCC2N1CCN(c2ccc(C(=O)NS(=O)(=O)c3ccc(NCC4CCOCC4)c([N+](=O)[O-])c3)c(Oc3cnc4[nH]ccc4c3)c2)CC1 (stereo not drawn) [Compound 56, 2-((1H-pyrrolo[2,3-b]pyridin-5-yl)oxy)-4-(4-(1-(methylsulfonamido)-6,7,8,9-tetrahydro-5H-benzo[7]annulen-5-yl)piperazin-1-yl)-N-((3-nitro-4-(((tetrahydro-2H-pyran-4-yl)methyl)amino)phenyl)sulfonyl)benzamide]	> 5000 nM
< 20 nM	< 20 nM	O=C(NS(=O)(=O)c1ccc(NCC2(O)CCN(C3COC3)CC2)c([N+](=O)[O-])c1)c1ccc(N2CCN([C@@H]3CCCCc4c(Cl)cccc43)CC2)cc1Oc1cnc2[nH]ccc2c1 [Compound 85, (R)-2-((1H-pyrrolo[2,3-b]pyridin-5-yl)oxy)-4-(4-(1-chloro-6,7,8,9-tetrahydro-5H-benzo[7]annulen-5-yl)piperazin-1-yl)-N-((4-(((4-hydroxy-1-(oxetan-3-yl)piperidin-4-yl)methyl)amino)-3-nitrophenyl)sulfonyl)benzamide]	< 50 nM
< 20 nM	200 to 2000 nM	CN1CCc2ccccc2C(N2CCN(c3ccc(C(=O)NS(=O)(=O)c4ccc(NCC5CCOCC5)c([N+](=O)[O-])c4)c(Oc4cnc5[nH]ccc5c4)c3)CC2)C1=O (stereo not drawn) [Compound 45, 2-((1H-pyrrolo[2,3-b]pyridin-5-yl)oxy)-4-(4-(3-methyl-2-oxo-2,3,4,5-tetrahydro-1H-benzo[d]azepin-1-yl)piperazin-1-yl)-N-((3-nitro-4-(((tetrahydro-2H-pyran-4-yl)methyl)amino)phenyl)sulfonyl)benzamide]	500 to 5000 nM
< 20 nM	> 2000 nM	O=C(NS(=O)(=O)c1ccc(NCC2CCOCC2)c([N+](=O)[O-])c1)c1ccc(N2CCN(C3CCCCc4ccc(Cl)cc43)CC2)cc1Oc1cnc2[nH]ccc2c1 (stereo not drawn) [Compound 26, 2-((1H-pyrrolo[2,3-b]pyridin-5-yl)oxy)-4-(4-(3-chloro-6,7,8,9-tetrahydro-5H-benzo[7]annulen-5-yl)piperazin-1-yl)-N-((3-nitro-4-(((tetrahydro-2H-pyran-4-yl)methyl)amino)phenyl)sulfonyl)benzamide]	50 to 500 nM
20 to 200 nM	200 to 2000 nM	O=C(NS(=O)(=O)c1cccc([N+](=O)[O-])c1)c1ccc(N2CCN(C3CCCCc4ccccc43)CC2)cc1Oc1cnc2[nH]ccc2c1 (stereo not drawn) [Compound 5, 2-((1H-pyrrolo[2,3-b]pyridin-5-yl)oxy)-N-((3-nitrophenyl)sulfonyl)-4-(4-(6,7,8,9-tetrahydro-5H-benzo[7]annulen-5-yl)piperazin-1-yl)benzamide]	500 to 5000 nM
20 to 200 nM	200 to 2000 nM	Cc1ccc(S(=O)(=O)N2CCc3ccccc3C(N3CCN(c4ccc(C(=O)NS(=O)(=O)c5ccc(NCC6CCOCC6)c([N+](=O)[O-])c5)c(Oc5cnc6[nH]ccc6c5)c4)CC3)C2)cc1 (stereo not drawn) [Compound 35, 2-((1H-pyrrolo[2,3-b]pyridin-5-yl)oxy)-N-((3-nitro-4-(((tetrahydro-2H-pyran-4-yl)methyl)amino)phenyl)sulfonyl)-4-(4-(3-tosyl-2,3,4,5-tetrahydro-1H-benzo[d]azepin-1-yl)piperazin-1-yl)benzamide]	500 to 5000 nM
< 20 nM	20 to 200 nM	O=C(NS(=O)(=O)c1ccc(NCCN2CCN(C3COC3)CC2)c([N+](=O)[O-])c1)c1ccc(N2CCN([C@@H]3CCCCc4c(Cl)cccc43)CC2)cc1Oc1cnc2[nH]ccc2c1 [Compound 84, (R)-2-((1H-pyrrolo[2,3-b]pyridin-5-yl)oxy)-4-(4-(1-chloro-6,7,8,9-tetrahydro-5H-benzo[7]annulen-5-yl)piperazin-1-yl)-N-((3-nitro-4-((2-(4-(oxetan-3-yl)piperazin-1-yl)ethyl)amino)phenyl)sulfonyl)benzamide]	< 50 nM
< 20 nM	< 20 nM	CN1CCC(CNc2ccc(S(=O)(=O)NC(=O)c3ccc(N4CCN([C@@H]5CCCCc6c(Cl)cc(F)cc65)CC4)cc3Oc3cnc4[nH]ccc4c3)cc2[N+](=O)[O-])CC1 [Compound 86, (R)-2-((1H-pyrrolo[2,3-b]pyridin-5-yl)oxy)-4-(4-(1-chloro-3-fluoro-6,7,8,9-tetrahydro-5H-benzo[7]annulen-5-yl)piperazin-1-yl)-N-((4-(((1-methylpiperidin-4-yl)methyl)amino)-3-nitrophenyl)sulfonyl)benzamide]	< 50 nM
< 20 nM	< 20 nM	O=C(O)CN1CCC2(CC1)CC(CNc1ccc(S(=O)(=O)NC(=O)c3ccc(N4CCN([C@@H]5CCCCc6c(Cl)cccc65)CC4)cc3Oc3cnc4[nH]ccc4c3)cc1[N+](=O)[O-])C2 [Compound 123, (R)-2-(2-(((4-(N-(2-((1H-pyrrolo[2,3-b]pyridin-5-yl)oxy)-4-(4-(1-chloro-6,7,8,9-tetrahydro-5H-benzo[7]annulen-5-yl)piperazin-1-yl)benzoyl)sulfamoyl)-2-nitrophenyl)amino)methyl)-7-azaspiro[3.5]nonan-7-yl)acetic acid]	50 to 500 nM
< 20 nM	< 20 nM	CN1CC2CC1CC2CNc1ccc(S(=O)(=O)NC(=O)c2ccc(N3CCN(C4CCCCc5c(Cl)cccc54)CC3)cc2Oc2cnc3[nH]ccc3c2)cc1[N+](=O)[O-] (stereo not drawn) [Compound 44, 2-((1H-pyrrolo[2,3-b]pyridin-5-yl)oxy)-4-(4-(1-chloro-6,7,8,9-tetrahydro-5H-benzo[7]annulen-5-yl)piperazin-1-yl)-N-((4-(((2-methyl-2-azabicyclo[2.2.1]heptan-5-yl)methyl)amino)-3-nitrophenyl)sulfonyl)benzamide]	50 to 500 nM
< 20 nM	200 to 2000 nM	CC(C)c1cccc2c1CCCCC2N1CCN(c2ccc(C(=O)NS(=O)(=O)c3ccc(NCC4CCOCC4)c([N+](=O)[O-])c3)c(Oc3cnc4[nH]ccc4c3)c2)CC1 (stereo not drawn) [Compound 51, 2-((1H-pyrrolo[2,3-b]pyridin-5-yl)oxy)-4-(4-(1-isopropyl-6,7,8,9-tetrahydro-5H-benzo[7]annulen-5-yl)piperazin-1-yl)-N-((3-nitro-4-(((tetrahydro-2H-pyran-4-yl)methyl)amino)phenyl)sulfonyl)benzamide]	500 to 5000 nM
< 20 nM	20 to 200 nM	O=C(NS(=O)(=O)c1ccc(NCC2CCOCC2)c([N+](=O)[O-])c1)c1ccc(N2CCN([C@@H]3CCCCc4c(Br)cccc43)CC2)cc1Oc1cnc2[nH]ccc2c1 [Compound 66, (R)-2-((1H-pyrrolo[2,3-b]pyridin-5-yl)oxy)-4-(4-(1-bromo-6,7,8,9-tetrahydro-5H-benzo[7]annulen-5-yl)piperazin-1-yl)-N-((3-nitro-4-(((tetrahydro-2H-pyran-4-yl)methyl)amino)phenyl)sulfonyl)benzamide]	< 50 nM
< 20 nM	< 20 nM	CC(=O)N1CCN(CCNc2ccc(S(=O)(=O)NC(=O)c3ccc(N4CCN([C@@H]5CCCCc6c(Br)cccc65)CC4)cc3Oc3cnc4[nH]ccc4c3)cc2[N+](=O)[O-])CC1 [Compound 65, (R)-2-((1H-pyrrolo[2,3-b]pyridin-5-yl)oxy)-N-((4-((2-(4-acetylpiperazin-1-yl)ethyl)amino)-3-nitrophenyl)sulfonyl)-4-(4-(1-bromo-6,7,8,9-tetrahydro-5H-benzo[7]annulen-5-yl)piperazin-1-yl)benzamide]	< 50 nM
< 20 nM	200 to 2000 nM	O=C(NS(=O)(=O)c1ccc(NCC2CCC3(CC2)COC3)c([N+](=O)[O-])c1)c1ccc(N2CCN([C@@H]3CCCCc4c(Br)cc(F)cc43)CC2)cc1Oc1cnc2[nH]ccc2c1 [Compound 79, (R)-2-((1H-pyrrolo[2,3-b]pyridin-5-yl)oxy)-N-((4-(((2-oxaspiro[3.5]nonan-7-yl)methyl)amino)-3-nitrophenyl)sulfonyl)-4-(4-(1-bromo-3-fluoro-6,7,8,9-tetrahydro-5H-benzo[7]annulen-5-yl)piperazin-1-yl)benzamide]	50 to 500 nM
20 to 200 nM	> 2000 nM	O=C(NS(=O)(=O)c1ccc(NCC2CCOCC2)c([N+](=O)[O-])c1)c1ccc(N2CCN(C3COCc4ccccc43)CC2)cc1Oc1cnc2[nH]ccc2c1 (stereo not drawn) [Compound 12, 2-((1H-pyrrolo[2,3-b]pyridin-5-yl)oxy)-4-(4-(isochroman-4-yl)piperazin-1-yl)-N-((3-nitro-4-(((tetrahydro-2H-pyran-4-yl)methyl)amino)phenyl)sulfonyl)benzamide]	500 to 5000 nM

From patent US20240239792A1, “MODULATORS OF BCL-2 OR BCL-2/BCL-XL AND USES THEREOF” (APPICINE THERAPEUTICS (HK) LIMITED, priority 2021, published 2024)
